# Assay results reported in patent US7951775B2, “Methods and pharmaceutical compositions for GnRH-I and GnRH-II modulation of T-cell activity, adhesion, migration and extravasation” (priority 2001, dated 2011).
# Where a SMILES comes first, the peptide text is derived from it. [ ]: non-standard residue; d: D form. dPhe(4-Cl) = N[C@H](Cc1ccc(Cl)cc1)C(=O)O; d2Nal = N[C@H](Cc1ccc2ccccc2c1)C(=O)O; dCit = NC(=O)NCCC[C@@H](N)C(=O)O; d3Pal = N[C@H](Cc1cccnc1)C(=O)O
# How the values were obtained:
# normal human T-cells [1] = assay: Quantitative RT-PCR of 67 kDa laminin receptor mRNA in T-cells; assay type: cell-based
# normal human T-cells [2] = assay: Double immunofluorescence staining (FACS) for surface 67 kDa laminin receptor and TCR; assay type: cell-based
# Protocol: Normal human T-cells, isolated from fresh peripheral blood lymphocytes, or EL-4 T-lymphocyte cells were subjected to double immunofluorescence staining, using a mouse monoclonal anti-67 kDa LR antibody (100 μl of 1:20 dilution per 1×10^6 cells/tube; 30 minutes on ice), or normal mouse sera for control. The cells were then stained with an FITC-conjugated goat anti-mouse IgG (100 μl of 1:100 dilution), and PE-conjugated mouse anti-human TCR αβ mAb (2 μl of stock). Cells that were stained only with the second and third antibodies served as additional negative controls. Fluorescence profiles were recorded in a FACSORT. To determine whether GnRH-II and GnRH-I trigger not only the gene transcription but also the surface expression of the 67 kDa LR, normal human T-cells were treated with either GnRH-II or GnRH-I for 18-66 h and subjected to double immunofluorescence staining using a monoclonal antibody (mAb) that is specific for the 67 kDa LR, and a phycoerythrin (PE)-conjugated anti-TCRαβ mAb (to confirm the T-cell origin of the cells). FIGS. 2A-2C show the staining for the untreated, GnRH-I treated and GnRH-II treated T-cells, respectively. The FACS profiles can be interpreted by division according to four categories: 1. Negative staining for both mAbs (double negative, lower left quadrant); 2. Single positive staining only with the anti-LR mAb (lower right quadrant), 3. Single positive staining only with the anti-TCR mAb (upper left quadrant); 4. Double positive staining with both mAbs (upper right quadrant). […] In different experiments, each using freshly isolated T-cells from a different human donor, both GnRH II and GnRH I repeatedly elevated the laminin receptor expression level, but the magnitude of elevation varied within a range of 6-40%. Such variations between T-cell populations originating from different donors are often observed in respect to various T-cell features and functions.
smiles,measurement,setting,value
"CC(=O)N[C@H](Cc1ccc2ccccc2c1)C(=O)N[C@H](Cc1ccc(Cl)cc1)C(=O)N[C@H](Cc1cccnc1)C(=O)N[C@@H](CO)C(=O)N[C@@H](Cc1ccc(O)cc1)C(=O)N[C@H](CCCNC(N)=O)C(=O)N[C@@H](CC(C)C)C(=O)N[C@@H](CCCNC(=N)N)C(=O)N1CCC[C@H]1C(=O)N[C@H](C)C(N)=O [Cetrorelix, reference compound] (Ac-[d2Nal][dPhe(4-Cl)][d3Pal]SY[dCit]LRP[dA]-NH2)",block of GnRH-I induced upregulation in gene expression of the 67 kDa LR,normal human T-cells [1]; 100 nM Cetrorelix + 10 nM GnRH-I (FIG. 2D),blocked
same,block of GnRH-II effect on gene expression of the 67 kDa LR,normal human T-cells [1]; 100 nM Cetrorelix + 10 nM GnRH-II (FIG. 2D),did not block
same,block of GnRH-I induced upregulation in surface expression of the 67 kDa LR,normal human T-cells [2]; 100 nM Cetrorelix + 10 nM GnRH-I (FIG. 2E),blocked
same,block of GnRH-II effect on surface expression of the 67 kDa LR,normal human T-cells [2]; 100 nM Cetrorelix + 10 nM GnRH-II (FIG. 2E),did not block
